Tests used:
[1] = In situ single-pass intestinal perfusion (SPIP), saponins administrated in monomer forms; format: in vivo; conditions: male, Sprague-Dawley, rat, other: in situ single-pass intestinal perfusion
Procedure: (§1) MDQ-TS perfusion samples at low, middle, and high concentration levels of 1.25, 2.5, and 5.0 mg·mL^−1 were prepared by separately dissolving MDQ-TS in the minimum amount of DMSO and diluted with K-R buffer solution. The amount of DMSO was 0.5% in the final perfusion solutions. C1, C2, C3, C4, DC1, and DC2 perfusion samples with the concentration equivalent to the amount contained in 2.5 mg·mL^−1 of MDQ-TS were individually prepared in the same way. Verapamil, amantadine and EDTA were directly dissolved in the MDQ-TS perfusate with terminal concentrations of 200 μmol·L^−1, 2.5 mmol·L^−1, and 2.5 mmol·L^−1, accordingly, and used for investigating the mechanisms involved for absorption.
(§2) In situ single-pass intestinal perfusion (SPIP) studies were performed using an experimental design adapted from the literature with some modifications. Briefly, male Sprague-Dawley rats weighing 180–220 g were acclimatized for at least one week before the experiment, and fasted for 18 h with free access to water before the perfusion experiment. Rats were anesthetized with an intraperitoneal injection of urethane (30 mg·kg^−1 body weight), and kept on a homeothermic blanket to maintain normal body temperature. The abdomen was opened with a midline longitudinal incision, and three segments of rat intestine (duodenum, jejunum, and ileum) of approximately 10 cm each were carefully cannulated on two ends with plastic tubing. Initially, the perfusion solution free of drug (37 °C) was pumped by peristaltic pump (BT100-1F, Longer Pump Co., Baoding, China) through the cannulated segments at a flow rate of 1 mL/min for approximately 30 min in order to clean out any residual debris. Secondly, the perfusion solution containing a known concentration of substance (C1, C2, C3, C4, DC1, DC2, and MDQ-TS) was perfused at 37 °C through the intestinal lumen at a constant flow rate of 0.2 mL/min. The first 20 min of period corresponds to steady state, i.e., when the substance is in equilibrium with the intestinal membrane. After steady state, samples were collected from distal portion of duodenum, jejunum and ileum at 10 min intervals (0–10, 10–20, 20–30, 30–40, 40–50, 50–60 min) in pre-weighted vials. Samples were immediately frozen at −20 °C until analysis by validated UPLC. During the experiment, care was taken to avoid disturbance of the circulatory system and the exposed segment was covered with a piece of sterilized gauze to keep it warm and moist by frequent application of warm (37 °C) saline. The intestinum tenue maintained its viability and intact state without disrupting the blood supply throughout the experimental period. Finally, animals were sacrificed after depth anesthesia by intraperitoneal injection of urethane, according to protocols for euthanasia in experimental animals. After death, the intestinal segment was removed for measurements of length and inside diameter.
(§3) The net water flux in the in situ perfusion studies (water absorption and efflux in the intestinal segment) was determined by gravimetric method. The effective absorption rate constant (Ka) and effective apparent permeability (Papp) of compounds in the intestinal segments were calculated according to the following mathematical expression:(1) Ka=(1−CoutQout/CinQin)Q/V (2) Papp=−Qln(CoutQout/CinQin)/2πrl where Cin and Cout are the concentration of test drug in the effluent perfusate through the inlet and outlet tube (μg·mL^−1), respectively. Qin and Qout represent the inlet and outlet volume of effluent perfusate (mL), respectively. Q is the volume flow rate of perfusion (mL·h^−1). V is the volume of the intestinal segment concerned (mL). 2πrl is the area of the mass transfer surface of intestinal segment concerned (cm^2).

[2] = In situ single-pass intestinal perfusion (SPIP), saponins administrated in MDQ-TS form; format: in vivo, rat; conditions: male, Sprague-Dawley, rat, other: in situ single-pass intestinal perfusion
Procedure: as §1, §2, §3

[3] = cited from earlier work
[4] = administered in monomer forms, summary bound
[5] = monomer form, duodenum, concentration equivalent to 2.5 mg·mL^−1 MDQ-TS, n = 5
[6] = MDQ-TS form 1.25 mg·mL^−1, duodenum, n = 5
[7] = MDQ-TS form 1.25 mg·mL^−1, ileum, n = 5
[8] = MDQ-TS form 1.25 mg·mL^−1, jejunum, n = 5
[9] = MDQ-TS form 2.5 mg·mL^−1, duodenum, n = 5
[10] = MDQ-TS form 2.5 mg·mL^−1, ileum, n = 5
[11] = MDQ-TS form 2.5 mg·mL^−1, jejunum, n = 5
[12] = MDQ-TS form 5.0 mg·mL^−1, duodenum, n = 5
[13] = MDQ-TS form 5.0 mg·mL^−1, ileum, n = 5
[14] = MDQ-TS form 5.0 mg·mL^−1, jejunum, n = 5
[15] = administrated in MDQ-TS form, summary bound (except DC2 in 1.25 mg·mL^−1 MDQ-TS group)

| SMILES | Papp [1, 4] | Papp [1, 5] | Papp ([1]; monomer form, ileum, n = 5) | Papp ([1]; monomer form, jejunum, n = 5) | Papp [2, 6] | Papp [2, 7] | Papp [2, 8] | Papp [2, 9] | Papp [2, 10] | Papp [2, 11] | Papp [2, 12] | Papp [2, 13] | Papp [2, 14] | Papp [2, 15] | absolute oral bioavailability ([3]; calculated based on literature data) | maximum plasma concentration ([3]; oral administration of C1, 100 mg/kg) |
| --- | --- | --- | --- | --- | --- | --- | --- | --- | --- | --- | --- | --- | --- | --- | --- | --- |
| C[C@@H]1CC[C@]2(C(=O)O)CC[C@]3(C)C(=CC[C@@H]4[C@@]5(C)CC[C@H](O)[C@@](C)(C(=O)O)[C@@H]5CC[C@]43C)[C@@H]2[C@]1(C)O [C1, ilexgenin A] | > 20 ×10⁻⁶ cm/s | 55 ×10⁻⁶ cm/s | 50 ×10⁻⁶ cm/s | 58.3 ×10⁻⁶ cm/s | 36.7 ×10⁻⁶ cm/s | 25 ×10⁻⁶ cm/s | 28.3 ×10⁻⁶ cm/s | 50 ×10⁻⁶ cm/s | 68.3 ×10⁻⁶ cm/s | 55 ×10⁻⁶ cm/s | 56.7 ×10⁻⁶ cm/s | 41.7 ×10⁻⁶ cm/s | 61.7 ×10⁻⁶ cm/s | > 20 ×10⁻⁶ cm/s | low value | approximately 350 ng·mL^−1 |
| CC1CCC2(C(=O)OC3OC(CO)C(O)C(O)C3O)CCC3(C)C(=CCC4C5(C)CCC(O)C(C)(C(=O)O)C5CCC43C)C2C1(C)O (stereo not drawn) [C2, ilexsaponin A1] | > 20 ×10⁻⁶ cm/s | 40 ×10⁻⁶ cm/s | 41.7 ×10⁻⁶ cm/s | 41.7 ×10⁻⁶ cm/s | 28.3 ×10⁻⁶ cm/s | 23.3 ×10⁻⁶ cm/s | 28.3 ×10⁻⁶ cm/s | 45 ×10⁻⁶ cm/s | 46.7 ×10⁻⁶ cm/s | 43.3 ×10⁻⁶ cm/s | 36.7 ×10⁻⁶ cm/s | 23.3 ×10⁻⁶ cm/s | 33.3 ×10⁻⁶ cm/s | > 20 ×10⁻⁶ cm/s |  |  |
